Experimental data from US8992674B2, “Ink, ink cartridge and ink jet recording method” (Canon Kabushiki Kaisha, priority 2012, dated 2015).

Assay: Measurement of Δλmax (UV-Vis absorption spectra in 20.0% 1,2-hexanediol aqueous solution and in water)
Type: physicochemical
Conditions: for λmaxD: maximum absorption wavelength in 20.0% by mass aqueous solution of 1,2-hexanediol; for λmaxD / λmaxW: coloring material 0.002 to 0.005%; for λmaxW: maximum absorption wavelength in ion-exchange water; for Δλmax: λmaxD−λmaxW
Text: Specifically, the ink according to the present invention contains a first coloring material and a second coloring material satisfying the following conditions. […] Further, the sum of the Δλmax1 and the Δλmax2 needs to be 35.0 or less. λmax refers to a maximum absorption wavelength in the visible region (380 to 750 nm) in a UV-Vis absorption spectrum of a coloring material, and can be measured using a spectrophotometer.
In a coloring material in which an associating state and a non-associating state are concurrently present, the absorption spectrum has a plurality of maximal-absorption wavelengths in some cases. Then, respective peak shapes (heights) at the maximal-absorption wavelengths representing the associating state and the non-associating state vary depending on a liquid medium to be used in some cases. The maximum absorption wavelength in the present invention means the following. That is, even in the case where a maximum absorption wavelength in an absorption spectrum in 20.0% by mass aqueous solution of 1,2-hexanediol shifts based on an absorption spectrum in water, a peak originated from a maximum absorption wavelength in water is taken as the maximum absorption wavelength. […] In the present invention, since it is important to consider the shift of a wavelength giving a highest absorbance, a maximum absorption wavelength in 20.0% by mass aqueous solution of 1,2-hexanediol is considered to be a maximal-absorption wavelength on a larger wavelength side, which is a peak originated from a maximum absorption wavelength in water.
For each coloring material, the difference Δλmax (=λmaxD−λmaxW) between a maximum absorption wavelength (λmaxD) in a 20.0% by mass aqueous solution of 1,2-hexanediol and a maximum absorption wavelength (λmaxW) in water in UV-Vis absorption spectra was measured. λmaxD and λmaxW were measured by diluting each coloring material by using a 20.0% by mass aqueous solution of 1,2-hexanediol or ion-exchange water so that the content of the coloring material became 0.002 to 0.005%. The measurement condition is shown below. Then, the value Δλmax=λmaxD−λmaxW was determined from the measurement. Here, the unit of λmax is “nm.”
Spectrophotometer: a self-recording spectrophotometer (trade name “U-3300,” made by Hitachi, Ltd.)
Measurement cell: 1-cm quartz cell
Sampling interval: 0.1 nm
Scanning speed: 30 nm/min

| Compound | λmaxD | λmaxW | Δλmax |
| --- | --- | --- | --- |
| Cc1ccc(S(=O)(=O)Nc2cc(S(=O)(=O)[O-])cc3cc(S(=O)(=O)[O-])c(N=Nc4cc(Cl)ccc4Oc4ccccc4)c(O)c23)cc1.[Na+].[Na+] [C.I. Acid Red 249] | 520.0 nm | 524.0 nm | −4.0 nm |
| O=C(O)c1nn(-c2ccc(S(=O)(=O)O)cc2)c(O)c1N=Nc1ccc(S(=O)(=O)O)cc1 [C.I. Acid Yellow 23] | 430.5 nm | 427.0 nm | 3.5 nm |
| Nc1cc2c(O)c(N=Nc3ccc(N=Nc4ccc(S(=O)(=O)[O-])cc4)c4ccc(S(=O)(=O)[O-])cc34)c(S(=O)(=O)[O-])cc2cc1S(=O)(=O)[O-].[Na+].[Na+].[Na+].[Na+] [C.I. Food Black 2] | 595.0 nm | 585.5 nm | 9.5 nm |
| Cc1c(C#N)c(Nc2ccc(S(=O)(=O)O)cc2)nc(Nc2ccc(S(=O)(=O)O)cc2)c1N=Nc1sc(N=Nc2ccccc2C#N)c(-c2ccc(Nc3nc(NCCS(=O)(=O)O)nc(Nc4cc(S(=O)(=O)O)ccc4S(=O)(=O)O)n3)cc2)c1C#N [black coloring material 1] | 630.5 nm | 605.5 nm | 25.0 nm |
| CCc1cc(C)c(S(=O)(=O)O)c(CC)c1Nc1nc(N(c2nc3ccc(S(=O)(=O)O)cc3s2)c2c(CC)cc(C)c(S(=O)(=O)O)c2CC)cc(C)c1N=Nc1c(C#N)c(C(C)(C)C)nn1-c1nc2ccc(S(=O)(=O)O)cc2s1 [magenta coloring material 1] | 559.5 nm | 555.0 nm | 4.5 nm |
| Cn1c(=O)c(C(=O)c2cccc(S(=O)(=O)O)c2)c2c3c(c(Nc4cc(Nc5nc(NCCNc6nc(Nc7cc(Nc8ccc9c%10c8C(=O)c8ccccc8-c%10c(C(=O)c8cccc(S(=O)(=O)O)c8)c(=O)n9C)c(S(=O)(=O)O)cc7S(=O)(=O)O)nc(Oc7ccc(S(=O)(=O)O)cc7)n6)nc(Oc6ccc(S(=O)(=O)O)cc6)n5)c(S(=O)(=O)O)cc4S(=O)(=O)O)ccc31)C(=O)c1ccccc1-2 [magenta coloring material 2] | 512.0 nm | 508.5 nm | 3.5 nm |
| Cc1cc(Nc2nc(NCCS(=O)(=O)O)nc(Nc3ccc(N=Nc4ccc(N=Nc5ccc(S(=O)(=O)O)cc5)cc4S(=O)(=O)O)c(C)c3)n2)ccc1N=Nc1ccc(N=Nc2ccc(S(=O)(=O)O)cc2)cc1S(=O)(=O)O [yellow coloring material 3] | 408.0 nm | 417.0 nm | −9.0 nm |
| COc1cc(N=Nc2cccc(S(=O)(=O)O)c2)ccc1Nc1nc(NCCS(=O)(=O)O)nc(Nc2ccc(N=Nc3cccc(S(=O)(=O)O)c3)cc2OCCCS(=O)(=O)O)n1 [yellow coloring material 4] | 382.0 nm | 391.5 nm | −9.5 nm |

More lines, now with the values ahead:

| λmaxD | λmaxW | Δλmax | Compound |
| --- | --- | --- | --- |
| 411.0 nm | 405.5 nm | 5.5 nm | COc1cc(N=Nc2cccc(S(=O)(=O)O)c2)ccc1NC(=O)Nc1ccc(N=Nc2cccc(S(=O)(=O)O)c2)cc1OC [C.I. Direct Yellow 132] |
| 604.0 nm | 604.0 nm | 0.0 nm | Cc1c(C#N)c(Nc2ccc(S(=O)(=O)O)cc2)nc(Nc2ccc(S(=O)(=O)O)cc2)c1N=Nc1nc(-c2ccc3ccccc3c2)c(N=Nc2cc(S(=O)(=O)O)c3cc(S(=O)(=O)O)cc(S(=O)(=O)O)c3c2)s1 [black coloring material 4] |
| 451.5 nm | 427.5 nm | 24.0 nm | CC(C)(C)c1nn(-c2cc(C(=O)O)cc(C(=O)O)c2)c(N)c1N=Nc1nnc(SCCSc2nnc(N=Nc3c(C(C)(C)C)nn(-c4cc(C(=O)O)cc(C(=O)O)c4)c3N)s2)s1 [yellow coloring material 1] |
| 399.0 nm | 380.0 nm | 19.0 nm | C.I. Direct Yellow 86 |
